Measured values taken from PMC9027957, “Interspecies Comparisons of the Effects of Potential Antiviral 3-Amidinophenylalanine Derivatives on Cytochrome P450 1A2 Isoenzyme” (Veterinary Sciences, 2022).
Read-outs that look alike come from different tables or passages of the source.

Columns and labels:
[1] = system: intestinal epithelial cells; details: up to a concentration 50 μM; cited from earlier work
rat hepatocytes = assay: MTS cytotoxicity assay in rat primary hepatocytes; assay type: cell-based; details: 50 μM and 100 μM, 24 h
Experimental: (§1) Rat, beagle, and cynomolgus monkey cryopreserved primary hepatocytes were obtained from Primacyt Cell Culture Company (Schwerin, Germany). The thawing, plating, and maintenance media were purchased from Lonza Group Ltd. (Biocenter Ltd., Szeged, Hungary). Influence of inhibitors MI-432 and MI-1900 on the viability of primary […] hepatocytes was tested. Hepatocytes, grown on a 96-well plate for 24 h, were incubated with the inhibitors at 0, 50, and at 100 µM for 24 h in treated groups. The control cells were incubated only with cell maintenance medium. After removal of the medium and three-fold washing of the cells with phosphate-buffered saline (PBS), 20 μL aliquots of CellTiter 96 AQueous one solution (MTS, Promega, Bioscience, Budapest, Hungary) were pipetted into a 96-well plate, each containing 100 μL of phenol red free medium. The plate was incubated with dye for 2 h. Viability of hepatocytes was measured at 490 nm using an EZ Read Biochrom 400 microplate reader.

[2] = system: intestinal epithelial cells (HIEC and IPEC-J2) and primary human hepatocytes (PHH); details: up to a concentration 50 μM; cited from earlier work
beagle hepatocytes = assay: MTS cytotoxicity assay in beagle primary hepatocytes; assay type: cell-based; details: 50 μM and 100 μM, 24 h
Experimental: as §1

[3] = system: cynomolgus monkey hepatocytes; assay: MTS cytotoxicity assay in cynomolgus monkey primary hepatocytes; assay type: cell-based; details: 50 μM and 100 μM, 24 h
Experimental: as §1

CYP1A2 [4] = target: T1, CYP1A2 (Canis lupus familiaris, UniProt P56592); assay: CYP1A2 fluorometric activity assay in beagle hepatic microsomes; assay type: in vitro ADME; details: beagle, dog, 15 min, 50 µM
T1 construct: endogenous in cells; host or cells: beagle hepatocytes
T1 sequence (P56592 1-512): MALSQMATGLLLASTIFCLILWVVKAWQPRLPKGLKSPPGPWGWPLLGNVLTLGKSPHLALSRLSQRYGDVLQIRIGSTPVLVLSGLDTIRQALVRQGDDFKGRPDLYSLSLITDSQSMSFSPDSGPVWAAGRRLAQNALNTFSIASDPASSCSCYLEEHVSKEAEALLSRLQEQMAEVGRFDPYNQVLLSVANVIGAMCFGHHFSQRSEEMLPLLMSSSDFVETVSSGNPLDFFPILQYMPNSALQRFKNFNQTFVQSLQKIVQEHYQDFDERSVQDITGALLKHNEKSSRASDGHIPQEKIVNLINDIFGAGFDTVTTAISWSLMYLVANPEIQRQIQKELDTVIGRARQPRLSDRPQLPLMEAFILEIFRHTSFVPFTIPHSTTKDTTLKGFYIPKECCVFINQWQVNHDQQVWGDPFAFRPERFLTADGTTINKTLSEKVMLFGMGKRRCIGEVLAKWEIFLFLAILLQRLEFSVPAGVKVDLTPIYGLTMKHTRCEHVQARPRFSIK
Experimental: The Biovision CYP assay (BioVision, Inc., Kampenhout, Belgium) utilizes a non-fluorescent CYP1A2 substrate capable of transforming into a highly fluorescent metabolite, which can be detected in the visible range. α-naphthoflavone was used as a CYP1A2 reference inhibitor at 6 µM during the experiments. Rat (Sprague–Dawley) and beagle (Gibco, Biocenter, Szeged, Hungary, protein concentration: 20 mg/mL) hepatic microsomal preparations were prepared separately by mixing 25 µL of the obtained rat or beagle microsomal suspension with 2425 µL assay buffer and with 50 µL NADPH generating system (100×). In the case of the cynomolgus monkey microsomal suspension (Primacyt, Schwerin, Germany, protein concentration: 5 mg/mL), the following volumes were applied: in addition to 100 µL of monkey microsomal suspension, the amount of assay buffer and the NADPH generating system were adjusted in order to ensure the original ratios of these components to reach a final volume of 2500 µL. Rat, beagle, and cynomolgus monkey microsomal suspension aliquots (50 µL) were treated with the protease inhibitor 20 µL, 0–1000 µM), the reference compound α-naphthoflavone (20 µL, 30 µM), or the assay buffer without test compounds (20 µL, background control) for 15 min at 37 °C. After incubation, 30 µL of the appropriate CYP1A2 substrate/NADP+ mixture was added to each well, yielding a final reaction volume of 100 µL/well. The protein contents of the obtained microsomes were analysed using bicinchoninic acid protein assay kit (Pierce BCA kit, Thermo Fisher Scientific, Waltham, MA, USA). […] The fluorescence intensities were measured with a fluorometer (Victor X2 2030, Perkin Elmer, Waltham, MA, USA), using λEx/Em = 406/468 nm.

CYP1A2 [5] = target: T1, CYP1A2; assay type: cell-based; details: dog, 2 h
Experimental: For the measurements of CYP1A2 activities, hepatocytes were grown on 24-well collagen-coated membrane inserts (Costar Transwell-PTFE membrane, 6.5 mm, pore size: 0.4 µm, Merck, Darmstadt, Germany). […] The determination of the CYP1A2 activities were performed using the P450-Glo CYP450 Assay (Promega, Madison, WI, USA) according to the manufacturer’s instructions.

[6] = system: chicken hepatic cell model; details: cited from earlier work

Compound: COc1ccc(-c2cccc(S(=O)(=O)N[C@@H](Cc3cccc(C(=N)N)c3)C(=O)N3CCN(C(=O)NC4CCCCC4)CC3)c2)c(OC)c1 [MI-1900]
- extracellular hydrogen peroxide levels [1]: did not result in elevation in extracellular hydrogen peroxide levels
- cell viability vs control (rat hepatocytes): No significant differences
- cell death [2]: did not cause significant cell death
- cell viability vs control (beagle hepatocytes): No significant differences
- cell viability vs control [3]: No significant differences

Compound: N=C(N)c1cccc(C[C@H](NS(=O)(=O)c2cccc(-c3ccc(Cl)cc3Cl)c2)C(=O)N2CCC(CCN)CC2)c1 [MI-432]
- beagle hepatic microsomal CYP1A2 isoenzyme activity (CYP1A2 [4]): reduced the activity of CYP1A2
- CYP1A2 function in beagle hepatocytes (CYP1A2 [5]; 20 µM): significantly inhibited CYP1A2 function
- CYP1A2 function in beagle hepatocytes (CYP1A2 [5]; 50 µM): significantly inhibited CYP1A2 function
- redox homeostasis [6]: only transiently disturbed
